# From patent US9732119B2, “Immunomodulators” (BRISTOL-MYERS SQUIBB COMPANY, priority 2014, dated 2017)
# Positions of bridges follow the written chain, without caps; N, C: chain ends. Non-standard residues stand in square brackets, D forms with d. Residues, ends and D or L forms follow the SMILES beside them. Trp(1-CH2COOH) = N[C@@H](Cc1cn(CC(=O)O)c2ccccc12)C(=O)O; Phe(4-Cl) = N[C@@H](Cc1ccc(Cl)cc1)C(=O)O; Phe(4-F) = N[C@@H](Cc1ccc(F)cc1)C(=O)O; Phe(4-Me) = Cc1ccc(C[C@H](N)C(=O)O)cc1; Hyp = O=C(O)[C@@H]1C[C@@H](O)CN1; Aad = N[C@@H](CCCC(=O)O)C(=O)O; NMeNle = CCCC[C@H](NC)C(=O)O; dOrn = NCCC[C@@H](N)C(=O)O; Pip = O=C(O)[C@@H]1CCCCN1; Dab = NCC[C@H](N)C(=O)O; Dap = NC[C@H](N)C(=O)O
# Molecular target: T1, PD-1-Ig binding to PD-L1-TVMV-His (PD-L1-His) (Homo sapiens, UniProt Q9NZQ7)
# T1 construct: hPDL1(19-239)-TVMV-His; made in house; host or cells: HEK293T cells
# Assay: PD-1/PD-L1 Homogenous Time-Resolved Fluorescence (HTRF) binding assay
# Settings: PD-1-Ig (20 nM) / PD-L1-His (10 nM); range classes
# Outline: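 HTRF competition: compound pre-incubated 15 min with PD-L1-His (10 nM final), then PD-1-Ig (20 nM final) added for 15 min in dPBS, 0.1% BSA, 0.05% Tween-20. Detection with Eu-cryptate anti-Ig (1 nM) and APC anti-His (20 nM) antibodies.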
# T1 sequence (Q9NZQ7 with tags, fused parts or gaps): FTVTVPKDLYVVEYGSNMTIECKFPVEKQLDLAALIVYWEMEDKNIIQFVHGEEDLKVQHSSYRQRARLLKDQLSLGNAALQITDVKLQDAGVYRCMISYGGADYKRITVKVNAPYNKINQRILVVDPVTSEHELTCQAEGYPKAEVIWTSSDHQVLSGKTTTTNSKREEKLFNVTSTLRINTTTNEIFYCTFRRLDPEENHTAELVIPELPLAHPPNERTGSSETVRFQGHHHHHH
row,SMILES,IC50 [nM]
1,CCCC[C@H]1C(=O)N(C)[C@@H](CCCC)C(=O)N[C@@H](CC(C)C)C(=O)N[C@H](C(N)=O)CCCC(=O)N[C@@H](Cc2ccc(OC)cc2)C(=O)N2CCCC[C@H]2C(=O)N[C@@H](CC(=O)O)C(=O)N2CCC[C@H]2C(=O)N[C@@H](CN)C(=O)N[C@@H](CC(C)C)C(=O)N2C[C@H](O)C[C@H]2C(=O)N[C@@H](Cc2c[nH]c3ccccc23)C(=O)N[C@@H](CCN)C(=O)N[C@@H](Cc2cn(CC(=O)O)c3ccccc23)C(=O)N1C [Example 10554] (Y(Me)[Pip]DP[Dap]L[Hyp]W[Dab][Trp(1-CH2COOH)][NMeNle][NMeNle]L[Aad]-NH2; lactam N-14),1 to 9.9
2,CCCC[C@H]1C(=O)N(C)[C@@H](CCCC)C(=O)N[C@@H](CC(C)C)C(=O)N[C@H](C(N)=O)CCCC(=O)N[C@@H](Cc2ccc(F)cc2)C(=O)N2CCCC[C@H]2C(=O)N[C@@H](CC(=O)O)C(=O)N2CCC[C@H]2C(=O)N[C@@H](CN)C(=O)N[C@@H](CC(C)C)C(=O)N2C[C@H](O)C[C@H]2C(=O)N[C@@H](Cc2c[nH]c3ccccc23)C(=O)N[C@@H](CCN)C(=O)N[C@@H](Cc2cn(CC(=O)O)c3ccccc23)C(=O)N1C [Example 10555] ([Phe(4-F)][Pip]DP[Dap]L[Hyp]W[Dab][Trp(1-CH2COOH)][NMeNle][NMeNle]L[Aad]-NH2; lactam N-14),10 to 99
3,CCCC[C@H]1C(=O)N(C)[C@@H](CCCC)C(=O)N[C@@H](CC(C)C)C(=O)N[C@H](C(N)=O)CCCC(=O)N[C@@H](Cc2ccc(Cl)cc2)C(=O)N2CCCC[C@H]2C(=O)N[C@@H](CC(=O)O)C(=O)N2CCC[C@H]2C(=O)N[C@@H](CN)C(=O)N[C@@H](CC(C)C)C(=O)N2C[C@H](O)C[C@H]2C(=O)N[C@@H](Cc2c[nH]c3ccccc23)C(=O)N[C@@H](CCN)C(=O)N[C@@H](Cc2cn(CC(=O)O)c3ccccc23)C(=O)N1C [Example 10556] ([Phe(4-Cl)][Pip]DP[Dap]L[Hyp]W[Dab][Trp(1-CH2COOH)][NMeNle][NMeNle]L[Aad]-NH2; lactam N-14),1 to 9.9
4,CCCC[C@H]1C(=O)N(C)[C@@H](CCCC)C(=O)N[C@@H](CCC(=O)O)C(=O)N[C@H](C(N)=O)CCCC(=O)N[C@@H](Cc2ccc(Cl)cc2)C(=O)N2CCCC[C@H]2C(=O)N[C@@H](CC(N)=O)C(=O)N2CCC[C@H]2C(=O)N[C@@H](CN)C(=O)N[C@@H](CC(C)C)C(=O)N2C[C@H](O)C[C@H]2C(=O)N[C@@H](Cc2c[nH]c3ccccc23)C(=O)N[C@@H](CCN)C(=O)N[C@@H](Cc2cn(CC(=O)O)c3ccccc23)C(=O)N1C [Example 10557] ([Phe(4-Cl)][Pip]NP[Dap]L[Hyp]W[Dab][Trp(1-CH2COOH)][NMeNle][NMeNle]E[Aad]-NH2; lactam N-14),1 to 9.9
5,CCCC[C@H]1C(=O)N(C)[C@@H](CCCC)C(=O)N[C@@H](CC(C)C)C(=O)NCCC[C@@H](N)C(=O)N[C@@H](Cc2ccc(O)cc2)C(=O)N2CCCC[C@H]2C(=O)N[C@@H](CC(N)=O)C(=O)N2CCC[C@H]2C(=O)N[C@@H](CN)C(=O)N[C@@H](CC(C)C)C(=O)N2C[C@H](O)C[C@H]2C(=O)N[C@@H](Cc2c[nH]c3ccccc23)C(=O)N[C@@H](CCN)C(=O)N[C@@H](Cc2cn(CC(=O)O)c3ccccc23)C(=O)N1C [Example 10558] (H-[dOrn]Y[Pip]NP[Dap]L[Hyp]W[Dab][Trp(1-CH2COOH)][NMeNle][NMeNle]L; lactam 1-C),10 to 99
6,CCCC[C@H]1C(=O)N(C)[C@@H](CCCC)C(=O)N[C@@H](CC(C)C)C(=O)NCCC[C@@H](N)C(=O)N[C@@H](Cc2ccc(Cl)cc2)C(=O)N2CCCC[C@H]2C(=O)N[C@@H](CC(N)=O)C(=O)N2CCC[C@H]2C(=O)N[C@@H](CN)C(=O)N[C@@H](CC(C)C)C(=O)N2C[C@H](O)C[C@H]2C(=O)N[C@@H](Cc2c[nH]c3ccccc23)C(=O)N[C@@H](CCN)C(=O)N[C@@H](Cc2cn(CC(=O)O)c3ccccc23)C(=O)N1C [Example 10559] (H-[dOrn][Phe(4-Cl)][Pip]NP[Dap]L[Hyp]W[Dab][Trp(1-CH2COOH)][NMeNle][NMeNle]L; lactam 1-C),10 to 99

# The next lines start with the values.
row,IC50 [nM],SMILES
1,10 to 99,CCCC[C@H]1C(=O)N(C)[C@@H](CCCC)C(=O)N[C@@H](CC(C)C)C(=O)NCCC[C@@H](N)C(=O)N[C@@H](Cc2ccc(C)cc2)C(=O)N2CCCC[C@H]2C(=O)N[C@@H](CC(N)=O)C(=O)N2CCC[C@H]2C(=O)N[C@@H](CN)C(=O)N[C@@H](CCC(=O)O)C(=O)N2C[C@H](O)C[C@H]2C(=O)N[C@@H](Cc2c[nH]c3ccccc23)C(=O)N[C@@H](CCN)C(=O)N[C@@H](Cc2cn(CC(=O)O)c3ccccc23)C(=O)N1C [Example 10560] (H-[dOrn][Phe(4-Me)][Pip]NP[Dap]E[Hyp]W[Dab][Trp(1-CH2COOH)][NMeNle][NMeNle]L; lactam 1-C)
2,1 to 9.9,CCCC[C@H]1C(=O)N(C)[C@@H](CCCC)C(=O)N[C@@H](CCC(=O)O)C(=O)N[C@H](C(N)=O)CCCC(=O)N[C@@H](Cc2ccc(O)cc2)C(=O)N2CCCC[C@H]2C(=O)N[C@@H](CC(N)=O)C(=O)N2CCC[C@H]2C(=O)N[C@@H](CN)C(=O)N[C@@H](CC(C)C)C(=O)N2C[C@H](O)C[C@H]2C(=O)N[C@@H](Cc2c[nH]c3ccccc23)C(=O)N[C@@H](CCN)C(=O)N[C@@H](Cc2cn(CC(=O)O)c3ccccc23)C(=O)N1C [Example 10561] (Y[Pip]NP[Dap]L[Hyp]W[Dab][Trp(1-CH2COOH)][NMeNle][NMeNle]E[Aad]-NH2; lactam N-14)
3,10 to 99,CCCC[C@H]1C(=O)N(C)[C@@H](CCCC)C(=O)N[C@@H](CCC(=O)O)C(=O)N[C@H](C(N)=O)CCCC(=O)N[C@@H](Cc2ccc(C)cc2)C(=O)N2CCCC[C@H]2C(=O)N[C@@H](CC(N)=O)C(=O)N2CCC[C@H]2C(=O)N[C@@H](CN)C(=O)N[C@@H](CC(C)C)C(=O)N2C[C@H](O)C[C@H]2C(=O)N[C@@H](Cc2c[nH]c3ccccc23)C(=O)N[C@@H](CCN)C(=O)N[C@@H](Cc2cn(CC(=O)O)c3ccccc23)C(=O)N1C [Example 10562] ([Phe(4-Me)][Pip]NP[Dap]L[Hyp]W[Dab][Trp(1-CH2COOH)][NMeNle][NMeNle]E[Aad]-NH2; lactam N-14)
4,1 to 9.9,CCCC[C@H]1C(=O)N(C)[C@@H](CCCC)C(=O)N[C@@H](CCC(=O)O)C(=O)N[C@H](C(N)=O)CCCC(=O)N[C@@H](Cc2ccc(OC)cc2)C(=O)N2CCCC[C@H]2C(=O)N[C@@H](CC(N)=O)C(=O)N2CCC[C@H]2C(=O)N[C@@H](CN)C(=O)N[C@@H](CC(C)C)C(=O)N2C[C@H](O)C[C@H]2C(=O)N[C@@H](Cc2c[nH]c3ccccc23)C(=O)N[C@@H](CCN)C(=O)N[C@@H](Cc2cn(CC(=O)O)c3ccccc23)C(=O)N1C [Example 10563] (Y(Me)[Pip]NP[Dap]L[Hyp]W[Dab][Trp(1-CH2COOH)][NMeNle][NMeNle]E[Aad]-NH2; lactam N-14)
5,10 to 99,CCCC[C@H]1C(=O)N(C)[C@@H](CCCC)C(=O)N[C@@H](CCC(=O)O)C(=O)N[C@H](C(N)=O)CCCC(=O)N[C@@H](Cc2ccc(F)cc2)C(=O)N2CCCC[C@H]2C(=O)N[C@@H](CC(N)=O)C(=O)N2CCC[C@H]2C(=O)N[C@@H](CN)C(=O)N[C@@H](CC(C)C)C(=O)N2C[C@H](O)C[C@H]2C(=O)N[C@@H](Cc2c[nH]c3ccccc23)C(=O)N[C@@H](CCN)C(=O)N[C@@H](Cc2cn(CC(=O)O)c3ccccc23)C(=O)N1C [Example 10564] ([Phe(4-F)][Pip]NP[Dap]L[Hyp]W[Dab][Trp(1-CH2COOH)][NMeNle][NMeNle]E[Aad]-NH2; lactam N-14)
6,1 to 9.9,CCCC[C@H]1C(=O)N(C)[C@@H](CCCC)C(=O)N[C@@H](CC(C)C)C(=O)NCCC[C@@H](N)C(=O)N[C@@H](Cc2ccc(F)cc2)C(=O)N2CCCC[C@H]2C(=O)N[C@@H](CC(N)=O)C(=O)N2CCC[C@H]2C(=O)N[C@@H](CN)C(=O)N[C@@H](CC(C)C)C(=O)N2C[C@H](O)C[C@H]2C(=O)N[C@@H](Cc2c[nH]c3ccccc23)C(=O)N[C@@H](CCN)C(=O)N[C@@H](Cc2cn(CC(=O)O)c3ccccc23)C(=O)N1C [Example 10566] (H-[dOrn][Phe(4-F)][Pip]NP[Dap]L[Hyp]W[Dab][Trp(1-CH2COOH)][NMeNle][NMeNle]L; lactam 1-C)
7,10 to 99,CCCC[C@H]1C(=O)N(C)[C@@H](CCCC)C(=O)N[C@@H](CC(C)C)C(=O)NCCC[C@@H](N)C(=O)N[C@@H](Cc2ccc(C)cc2)C(=O)N2CCCC[C@H]2C(=O)N[C@@H](CC(N)=O)C(=O)N2CCC[C@H]2C(=O)N[C@@H](CN)C(=O)N[C@@H](CC(C)C)C(=O)N2C[C@H](O)C[C@H]2C(=O)N[C@@H](Cc2c[nH]c3ccccc23)C(=O)N[C@@H](CCN)C(=O)N[C@@H](Cc2cn(CC(=O)O)c3ccccc23)C(=O)N1C [Example 10567] (H-[dOrn][Phe(4-Me)][Pip]NP[Dap]L[Hyp]W[Dab][Trp(1-CH2COOH)][NMeNle][NMeNle]L; lactam 1-C)
8,1 to 9.9,CCCC[C@H]1C(=O)N(C)[C@@H](CCCC)C(=O)N[C@@H](CC(C)C)C(=O)NCCC[C@@H](N)C(=O)N[C@@H](Cc2ccc(O)cc2)C(=O)N2CCCC[C@H]2C(=O)N[C@@H](CC(N)=O)C(=O)N2CCC[C@H]2C(=O)N[C@@H](CN)C(=O)N[C@@H](CCC(=O)O)C(=O)N2C[C@H](O)C[C@H]2C(=O)N[C@@H](Cc2c[nH]c3ccccc23)C(=O)N[C@@H](CCN)C(=O)N[C@@H](Cc2cn(CC(=O)O)c3ccccc23)C(=O)N1C [Example 10568] (H-[dOrn]Y[Pip]NP[Dap]E[Hyp]W[Dab][Trp(1-CH2COOH)][NMeNle][NMeNle]L; lactam 1-C)
9,1 to 9.9,CCCC[C@H]1C(=O)N(C)[C@@H](CCCC)C(=O)N[C@@H](CC(C)C)C(=O)NCCC[C@@H](N)C(=O)N[C@@H](Cc2ccc(OC)cc2)C(=O)N2CCCC[C@H]2C(=O)N[C@@H](CC(N)=O)C(=O)N2CCC[C@H]2C(=O)N[C@@H](CN)C(=O)N[C@@H](CCC(=O)O)C(=O)N2C[C@H](O)C[C@H]2C(=O)N[C@@H](Cc2c[nH]c3ccccc23)C(=O)N[C@@H](CCN)C(=O)N[C@@H](Cc2cn(CC(=O)O)c3ccccc23)C(=O)N1C [Example 10569] (H-[dOrn]Y(Me)[Pip]NP[Dap]E[Hyp]W[Dab][Trp(1-CH2COOH)][NMeNle][NMeNle]L; lactam 1-C)
